US20250230193A1, “CYCLIC COMPOUND HAVING SELECTIVE KRAS INHIBITORY EFFECT ON HRAS AND NRAS” (CHUGAI SEIYAKU KABUSHIKI KAISHA, priority 2022, published 2025)

What was measured:
[1] = molecular target: GDP-bound NRAS wild-type protein (Homo sapiens, UniProt P01111); assay: Binding to NRAS by surface plasmon resonance (SPR), Single Cycle Kinetics; settings: SPR; KD ratio class
[2] = tested on: human lung cancer strain NCI-H441; assay: cells; settings: NCI-H441, 96 h, read-out: NCI-H441 IC50 (nM)
[3] = molecular target: GDP-bound HRAS wild-type protein (Homo sapiens, UniProt P01112); assay: Binding to HRAS by surface plasmon resonance (SPR), Single Cycle Kinetics; settings: SPR; KD ratio class
GDP-bound HRAS wild-type protein, sequence (P01112 whole entry): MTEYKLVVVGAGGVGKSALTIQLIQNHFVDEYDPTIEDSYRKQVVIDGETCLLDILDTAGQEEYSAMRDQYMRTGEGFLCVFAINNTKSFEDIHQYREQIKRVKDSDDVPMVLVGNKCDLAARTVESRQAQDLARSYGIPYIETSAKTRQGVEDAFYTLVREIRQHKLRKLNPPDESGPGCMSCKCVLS

GDP-bound NRAS wild-type protein, sequence (P01111 whole entry): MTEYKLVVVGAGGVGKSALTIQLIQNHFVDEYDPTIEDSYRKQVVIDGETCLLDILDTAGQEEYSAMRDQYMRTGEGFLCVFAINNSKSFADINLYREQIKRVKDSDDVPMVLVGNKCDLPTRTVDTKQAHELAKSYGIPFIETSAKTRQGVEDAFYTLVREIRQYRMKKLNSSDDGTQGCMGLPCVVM

| Compound | IC50 [2] [nM] | NRAS/KRAS (ratio of KD value for GDP-bound NRAS wild-type protein to KD value for KRAS) [1] | HRAS/KRAS (ratio of KD value for GDP-bound HRAS wild-type protein to KD value for KRAS) [3] |
| --- | --- | --- | --- |
| CCO[C@@H]1C[C@H]2C(=O)NC3(CCC3)C(=O)N(C)[C@@H](C(CC)CC)C(=O)N(C)[C@H](C)CC(=O)N(C)[C@@H](CC(C)C)C(=O)N[C@@H]([C@@H](C)CC)C(=O)N(C)CC(=O)N(C)[C@H]3C/C=C\CCN(C3=O)[C@@H](Cc3ccc(F)cc3)C(=O)N(C)CC(=O)N[C@@H](CCc3cc(F)c(C(F)(F)F)c(F)c3)C(=O)N2C1 [PP1525] | 132 | A (a compound having 10 or more and less than 20 is denoted as A) | A (a compound having 10 or more and less than 20 is denoted as A) |
| CCO[C@@H]1C[C@H]2C(=O)NC3(CCC3)C(=O)N(C)[C@@H](C(CC)CC)C(=O)N(C)[C@H](C(=O)N(C)C)CC(=O)N(C)[C@@H](CC3CCCC3)C(=O)N[C@@H]([C@@H](C)CC)C(=O)N(C)CC(=O)N(C)[C@H]3C/C=C\CCN(C3=O)[C@@H](Cc3ccc(C(F)(F)F)cc3)C(=O)N(C)CC(=O)N[C@@H](CCc3ccc(C(F)(F)F)c(OC)c3)C(=O)N2C1 [PP1212] | 35.6 | AA (a compound having 20 or more is denoted as AA) | A (a compound having 10 or more and less than 20 is denoted as A) |
| CCO[C@@H]1C[C@H]2C(=O)NC3(CCC3)C(=O)N(C)[C@@H](C3CCCC3)C(=O)N(C)[C@H](C(=O)N3CCOCC3)CC(=O)N(C)[C@@H](CC(C)C)C(=O)N[C@@H]([C@@H](C)CC)C(=O)N(C)CC(=O)N(C)[C@H]3C/C=C\CCN(C3=O)[C@@H](Cc3ccc(C)cc3)C(=O)N(C)CC(=O)N[C@@H](CCc3cc(F)c(C(F)(F)F)c(F)c3)C(=O)N2C1 [PP1415] | 9.5 | A (a compound having 10 or more and less than 20 is denoted as A) | A (a compound having 10 or more and less than 20 is denoted as A) |
| CCO[C@@H]1C[C@H]2C(=O)NC3(CCC3)C(=O)N(C)[C@@H](C3CCCC3)C(=O)N(C)[C@H](C)CC(=O)N(C)[C@@H](CC(C)C)C(=O)N[C@@H]([C@@H](C)CC)C(=O)N(C)CC(=O)N(C)[C@H]3C/C=C\CCN(C3=O)[C@@H](Cc3ccc(C)cc3)C(=O)N(C)CC(=O)N[C@@H](CCc3cc(F)c(C(F)(F)F)c(F)c3)C(=O)N2C1 [PP1417] | 18.4 | B (a compound having 3 or more and less than 10 is denoted as B) | B (a compound having 3 or more and less than 10 is denoted as B) |
| CCO[C@@H]1C[C@H]2C(=O)NC3(CCC3)C(=O)N(C)[C@@H](C3CCCC3)C(=O)N(C)[C@H](C(=O)N3CCOCC3)CC(=O)N(C)[C@@H](CC(C)C)C(=O)N[C@@H]([C@@H](C)CC)C(=O)N3CC[C@H]3C(=O)N(C)[C@H]3CC[C@@H](C)CN(C3=O)[C@@H](Cc3ccc(C(F)(F)F)cc3)C(=O)N(C)CC(=O)N[C@@H](CCc3cc(F)c(C(F)(F)F)c(F)c3)C(=O)N2C1 [PP1373] | 12.2 | B (a compound having 3 or more and less than 10 is denoted as B) | B (a compound having 3 or more and less than 10 is denoted as B) |

The remaining compounds from weak to strong by IC50 [2], led by results:

| IC50 [2] [nM] | Compound | NRAS/KRAS (ratio of KD value for GDP-bound NRAS wild-type protein to KD value for KRAS) [1] | HRAS/KRAS (ratio of KD value for GDP-bound HRAS wild-type protein to KD value for KRAS) [3] |
| --- | --- | --- | --- |
| 117 | CCO[C@@H]1C[C@H]2C(=O)NC3(CCC3)C(=O)N(C)[C@@H](C(CC)CC)C(=O)N(C)[C@H](C(=O)N(C)C)CC(=O)N(C)[C@@H](CC)C(=O)N[C@@H]([C@@H](C)CC)C(=O)N(C)CC(=O)N(C)[C@H]3C/C=C\CCN(C3=O)[C@@H](Cc3ccc(C(F)(F)F)cc3)C(=O)N(C)CC(=O)N[C@@H](CCc3ccc4sccc4c3)C(=O)N2C1 [PP1223] | AA (a compound having 20 or more is denoted as AA) | A (a compound having 10 or more and less than 20 is denoted as A) |
| 93.4 | CCO[C@@H]1C[C@H]2C(=O)NC3(CCC3)C(=O)N(C)[C@@H](C(CC)CC)C(=O)N(C)[C@H](C(=O)N(C)C)CC(=O)N(C)[C@@H](C)C(=O)N[C@@H]([C@@H](C)CC)C(=O)N(C)CC(=O)N(C)[C@H]3C/C=C\CCN(C3=O)[C@@H](Cc3ccc(C(F)(F)F)cc3)C(=O)N(C)CC(=O)N[C@@H](CCc3ccc(Cl)c(Cl)c3)C(=O)N2C1 [PP1214] | AA (a compound having 20 or more is denoted as AA) | A (a compound having 10 or more and less than 20 is denoted as A) |
| 82 | CC[C@H](C)[C@@H]1NC(=O)[C@H](CC2CC2)N(C)C(=O)C[C@@H](C(=O)N(C)C)N(C)C(=O)[C@H](C2CCCC2)N(C)C(=O)C2(CCC2)NC(=O)[C@H](CCC(F)F)N(C)C(=O)[C@H](CCc2cc(F)c(C(F)(F)F)c(F)c2)NC(=O)CN(C)C(=O)[C@H](Cc2ccc(C(F)(F)F)cc2)N2CC/C=C\C[C@@H](C2=O)N(C)C(=O)CN(C)C1=O [PP1402] | A (a compound having 10 or more and less than 20 is denoted as A) | A (a compound having 10 or more and less than 20 is denoted as A) |
| 53.5 | CCO[C@@H]1C[C@H]2C(=O)NC3(CCC3)C(=O)N(C)[C@@H](C3CCCC3)C(=O)N(C)[C@H](C(=O)N(C)C)CC(=O)N(C)[C@@H](CC)C(=O)N[C@@H](C(C)C)C(=O)N(C)CC(=O)N(C)[C@H]3C/C=C\CCN(C3=O)[C@@H](Cc3ccc(C(F)(F)F)cc3)C(=O)N(C)CC(=O)N[C@@H](CCc3cc(F)c(C(F)(F)F)c(F)c3)C(=O)N2C1 [PP1270] | A (a compound having 10 or more and less than 20 is denoted as A) | B (a compound having 3 or more and less than 10 is denoted as B) |
| 13.5 | CC[C@H](C)[C@@H]1NC(=O)[C@H](CC)N(C)C(=O)C[C@@H](C(=O)N2CCOCC2)N(C)C(=O)[C@H](C2CCCC2)N(C)C(=O)C2(CCC2)NC(=O)[C@@H]2CCCN2C(=O)[C@H](CCc2cc(F)c(C(F)(F)F)c(F)c2)NC(=O)CN(C)C(=O)[C@H](Cc2ccc(C(F)(F)F)cc2)N2C[C@H](C)CC[C@@H](C2=O)N(C)C(=O)CN(C)C1=O [PP1384] | A (a compound having 10 or more and less than 20 is denoted as A) | B (a compound having 3 or more and less than 10 is denoted as B) |
| 12.3 | CCO[C@@H]1C[C@H]2C(=O)NC3(CCC3)C(=O)N(C)[C@@H](C3CCCC3)C(=O)N(C)[C@H](C(=O)N3CCOCC3)CC(=O)N(C)[C@@H](CC(C)C)C(=O)N[C@@H]([C@@H](C)CC)C(=O)N(C)CC(=O)N(C)[C@H]3C/C=C\CCN(C3=O)[C@@H](Cc3ccc(C(F)(F)F)cc3)C(=O)N(C)CC(=O)N[C@@H](CCc3cc(F)c(C(F)(F)F)c(F)c3)C(=O)N2C1 [PP1282] | A (a compound having 10 or more and less than 20 is denoted as A) | A (a compound having 10 or more and less than 20 is denoted as A) |
